Data set [1] relates to HBV-infected NTCP-HepG2 cells, secreted HBsAg. In words: microbe, parasite or virus in culture. The format is cell-based, hepatitis B virus (genotype D, AD38-derived). The note with it: Hepatitis B virus, 120 h, secreted HBsAg in supernatant after 5 days; geometric mean of minimum four determinations; read-out: NTCP HBsAg EC50. As for the experimental part: NTCP-HepG2 Antiviral Assay for Secreted HBsAg
HepG2 cells stably expressing sodium-taurocholate cotransporting polypeptide (NTCP-HepG2) were grown in Dulbecco's Modified Eagle Medium (DMEM) without sodium pyruvate (Thermo Fisher Scientific, Waltham, Mass.) supplemented with 10% fetal bovine serum, 2 mM L-glutamine, 1% penicillin/streptomycin, and 0.25 mg/mL G-418. NTCP-HepG2 cells were infected with 4000 genome equivalent per cell of genotype D (AD38-derived) HBV in DMEM without sodium pyruvate (Thermo Fisher Scientific, Waltham, Mass.) supplemented with 2% fetal bovine serum, 2 mM L-glutamine, 1% penicillin/streptomycin, 2.5% DMSO, and 4% PEG 8000 (Promega, Madison, Wis.). After 24-hour incubation, cells were washed three times with OptiMEM (Thermo Fisher Scientific, Waltham, Mass.) and fed with fresh DMEM without sodium pyruvate (Thermo Fisher Scientific, Waltham, Mass.) supplemented with 2% fetal bovine serum, 2 mM L-glutamine, 1% penicillin/streptomycin, and 2.5% DMSO. At 4 days after infection, infected NTCP-HepG2 cells were seeded on 384-well plates pre-coated with collagen at a density of 20000 cells per well containing serially diluted compounds of the present disclosure or DMSO (0.5%) in a final volume of 80 μl of DMEM without sodium pyruvate (Thermo Fisher Scientific, Waltham, Mass.) supplemented with 2% fetal bovine serum, 2 mM L-glutamine, 1% penicillin/streptomycin, and 1% DMSO. After an incubation time of 5 days, cell culture supernatant was collected and measured for HBsAg.
Secreted HBsAg in the supernatant were measured using a multiplex chemiluminescent MSD assay (Meso Scale Discovery, Rockville, Md.) using capture and detection antibody pairs specific for HBsAg. The EC50 values were calculated from the fit of the dose-response curves to a four-parameter equation. All EC50 values represent geometric mean values of a minimum of four determinations.

Another data set in a line: MT-4 cytotoxicity assay. In kind it is cell-based, human. The note with it: human. As for the experimental part:
Biological Example 2: MT-4 Cytotoxicity Assay
The MT-4 cell line (HTLV-1 transformed, human T lymphoblastoid cells) was obtained from the NIH AIDS Reagent program (Bethesda, Md.). MT-4 cells were maintained in RPMI-1640 media (Thermo Fisher Scientific, Waltham, Mass.) supplemented with 10% fetal bovine serum, 100 Units/mL penicillin, and 100 μg/mL streptomycin. For the MT-4 cytotoxicity assay, 0.4 μL of serially diluted solutions of certain compounds disclosed herein were added to 40 μL of cell maintenance media in 384-well black, solid bottom plate using a Biomek FX workstation (Beckman Coulter, Brea, Calif.). Two thousand cells in 35 μL were added to each well using a Biotek uFlow Workstation (Biotek, Winooski, Vt.). Each assay plate contained 10 μM puromycin (final concentration) and 0.5% DMSO in RPMI-1640 media as positive and negative controls, respectively. Assay plates were incubated for five days at 37° C. in an incubator set at 5% CO2 and 90% humidity. After five days, 22 μL of Cell Titer Glo reagent (Promega, Madison, Wis.) was added to the assay plates with a Biotek uFlow Workstation. Plates were subsequently placed on an Envision Plate Reader (Perkin Elmer, Waltham, Mass.) for five minutes before the luminescence signal was read. CC50 values were defined as the compound concentration that caused a 50% decrease in luminescence signal, and were calculated by non-linear regression using Pipeline Pilot software by applying a four parameter fit equation (Accelrys, San Diego, Calif.) and are reported in the following Table 1.

Where [2] appears, read: five days, Cell Titer Glo luminescence, read-out: MT-4 CC50.

EC50 and CC50 data for 20 molecules are collected here from patent US10442804B2, “Compounds for the treatment of hepatitis B virus infection” (Gilead Sciences, Inc., priority 2017, dated 2019).

Where two headings read alike, the source gives them in different places.

For `COC(C)(C)C#Cc1cc2c(cc1C1CC1)-c1cc(=O)c(C(=O)O)cn1N1[C@@H]2CCC1(C)C` [Example 72, (R)-11-cyclopropyl-12-(3-methoxy-3-methylbut-1-yn-1-yl)-3,3-dimethyl-8-oxo-2,3,8,13b-tetrahydro-1H-pyrido[2,1-a]pyrrolo[1,2-c]phthalazine-7-carboxylic acid], the EC50 in data set [1] came out at 0.95 nM. In addition, the half-maximal cytotoxic concentration (CC50) at 5 days in the data set “MT-4 cytotoxicity assay” (setting [2]) amounted to 6400 nM.
On to `COc1cc2c(cc1OCCCOc1ccccc1)[C@H]1CCC(C)(C)N1n1cc(C(=O)O)c(=O)cc1-2` [Example 61], for which, in data set [1], the EC50 came to 0.94 nM. In “MT-4 cytotoxicity assay” (setting [2]), the CC50 at 5 days was determined as 6000 nM.
For `COCCCOc1cc2c(cc1Cl)-c1cc(=O)c(C(=O)O)cn1N1[C@@H](C)CC[C@@H]21` (single isomer, unassigned) [Example 8], the half-maximal effective concentration (EC50) in data set [1] is 200 nM. The CC50 at 5 days in the data set “MT-4 cytotoxicity assay” (setting [2]) is over 10000 nM.
The matching figures for `CC1(C)CC[C@@H]2c3cc(OCC4COC4)c(C4CC4)cc3-c3cc(=O)c(C(=O)O)cn3N21` [Example 66, (R)-11-cyclopropyl-3,3-dimethyl-12-(oxetan-3-ylmethoxy)-8-oxo-2,3,8,13b-tetrahydro-1H-pyrido[2,1-a]pyrrolo[1,2-c]phthalazine-7-carboxylic acid]: 0.97 nM and over 10000 nM.
Take `CC1(C)CC[C@@H]2c3cc(C#CC(C)(C)S(C)(=O)=O)c(OC(F)(F)F)cc3-c3cc(=O)c(C(=O)O)cn3N21` [Example 89, (R)-3,3-dimethyl-12-(3-methyl-3-(methylsulfonyl)but-1-yn-1-yl)-8-oxo-11-(trifluoromethoxy)-2,3,8,13b-tetrahydro-1H-pyrido[2,1-a]pyrrolo[1,2-c]phthalazine-7-carboxylic acid]: in data set [1], the EC50 worked out at 13.7 nM. Further, the CC50 at 5 days in the data set “MT-4 cytotoxicity assay” (setting [2]) was over 10000 nM.
The matching figures for `COCCCOc1cc2c(cc1OCCCOC)[C@H]1CCC(C)(C)N1n1cc(C(=O)O)c(=O)cc1-2` [Example 23, (R)-11,12-bis(3-methoxypropoxy)-3,3-dimethyl-8-oxo-2,3,8,13b-tetrahydro-1H-pyrido[2,1-a]pyrrolo[1,2-c]phthalazine-7-carboxylic acid]: 53 nM and over 10000 nM.
For `COCc1cc2c(cc1N1CC[C@@H](COC)C1)[C@H]1CCC(C)(C)N1n1cc(C(=O)O)c(=O)cc1-2` [Compound 117, (R)-11-(methoxymethyl)-12-((R)-3-(methoxymethyl)pyrrolidin-1-yl)-3,3-dimethyl-8-oxo-2,3,8,13b-tetrahydro-1H-pyrido[2,1-a]pyrrolo[1,2-c]phthalazine-7-carboxylic acid] the same measures were 5.3 nM and 9700 nM.
In the case of `COc1cc2c(cc1C#Cc1cnc3cccnn13)[C@H]1CCC(C)(C)N1n1cc(C(=O)O)c(=O)cc1-2` [Example 68, (R)-12-(imidazo[1,2-b]pyridazin-3-ylethynyl)-11-methoxy-3,3-dimethyl-8-oxo-2,3,8,13b-tetrahydro-1H-pyrido[2,1-a]pyrrolo[1,2-c]phthalazine-7-carboxylic acid], the EC50 in data set [1] stood at 2.9 nM. In addition, the CC50 at 5 days in “MT-4 cytotoxicity assay” (setting [2]) is over 10000 nM.
For `COCCCOc1cc2c(cc1Cl)-c1cc(=O)c(C(=O)O)cn1N1CCC[C@@H]21` (single isomer, unassigned) [Example 3], the EC50 in data set [1] is over 1000 nM. Moreover, the CC50 at 5 days in the data set “MT-4 cytotoxicity assay” (setting [2]) worked out at 9100 nM.
As for `COCCCOc1cc2c(cc1Cl)-c1cc(=O)c(C(=O)O)cn1N1[C@@H]2CC1(C)C` [Example 46, (R)-10-chloro-11-(3-methoxypropoxy)-2,2-dimethyl-7-oxo-1,2,7,12b-tetrahydroazeto[2,1-a]pyrido[1,2-c]phthalazine-6-carboxylic acid and (S)-10-chloro-1-(3-methoxypropoxy)-2,2-dimethyl-7-oxo-1,2,7,12b-tetrahydroazeto[2,1-a]pyrido[1,2-c]phthalazine-6-carboxylic acid], the concentration giving a half-maximal response (EC50) in data set [1] was found to be 7.8 nM. The half-maximal cytotoxic concentration (CC50) at 5 days in “MT-4 cytotoxicity assay” (setting [2]) is over 10000 nM.
For the molecule `COCCCOc1cc2c(cc1OCC(F)F)-c1cc(=O)c(C(=O)O)cn1N1[C@@H]2CCC1(C)C` [Example 27, (R)-11-(2,2-difluoroethoxy)-12-(3-methoxypropoxy)-3,3-dimethyl-8-oxo-2,3,8,13b-tetrahydro-1H-pyrido[2,1-a]pyrrolo[1,2-c]phthalazine-7-carboxylic acid], the EC50 in data set [1] turned out to be 3.7 nM. For the same molecule, in “MT-4 cytotoxicity assay” (setting [2]), the CC50 at 5 days is over 10000 nM.
For the molecule `COCCCOc1cc2c(cc1OCCCOC)[C@@H]1CCC(C)(C)N1n1cc(C(=O)O)c(=O)cc1-2` [Example 24, (S)-11,12-bis(3-methoxypropoxy)-3,3-dimethyl-8-oxo-2,3,8,13b-tetrahydro-1H-pyrido[2,1-a]pyrrolo[1,2-c]phthalazine-7-carboxylic acid], the EC50 in data set [1] is over 1000 nM. For the same molecule, the cytotoxic concentration (CC50) at 5 days in “MT-4 cytotoxicity assay” (setting [2]) is over 10000 nM.
`COCCCOc1cc2c(cc1Cl)-c1cc(=O)c(C(=O)O)cn1N1[C@H]2CCC12CC2` (single isomer, unassigned) [Example 57]: the half-maximal effective concentration (EC50) in data set [1] was over 1000 nM. Moreover, the cytotoxic concentration (CC50) at 5 days in the data set “MT-4 cytotoxicity assay” (MT-4 CC50) was over 10000 nM.
In the case of `COCCCOc1cc2c(cc1Cl)-c1cc(=O)c(C(=O)O)cn1N1[C@@H]2CCC12COC2` [Example 82, (R)-11′-chloro-12′-(3-methoxypropoxy)-8′-oxo-1′,2′,8′,13b′-tetrahydrospiro[oxetane-3,3′-pyrido[2,1-a]pyrrolo[1,2-c]phthalazine]-7′-carboxylic acid], in data set [1], the EC50 was 72 nM. Also, in the data set “MT-4 cytotoxicity assay” (MT-4 CC50), the CC50 at 5 days is over 10000 nM.
Regarding `COCCCOc1cc2c(cc1COC)-c1cc(=O)c(C(=O)O)cn1N1[C@@H]2COCC12CCC2` [Compound 114, (S)-12′-(methoxymethyl)-13′-(3-methoxypropoxy)-9′-oxo-9′,14b′-dihydro-1′H,3′H-spiro[cyclobutane-1,4′-[1,4]oxazino[3,4-a]pyrido[1,2-c]phthalazine]-8′-carboxylic acid], the concentration giving a half-maximal response (EC50) in data set [1] was 67.6 nM. In the data set “MT-4 cytotoxicity assay” (MT-4 CC50), this molecule came in with a cytotoxic concentration (CC50) at 5 days of over 10000 nM.
For the molecule `CCc1cc2c(cc1OCCCOC)[C@H]1CCC(C)(C)N1n1cc(C(=O)O)c(=O)cc1-2` [Example 63, (R)-11-Ethyl-12-(3-methoxypropoxy)-3,3-dimethyl-8-oxo-2,3,8,13b-tetrahydro-1H-pyrido[2,1-a]pyrrolo[1,2-c]phthalazine-7-carboxylic acid], in data set [1], the concentration giving a half-maximal response (EC50) stood at 0.34 nM. The cytotoxic concentration (CC50) at 5 days in “MT-4 cytotoxicity assay” (setting [2]) is over 10000 nM.
With `COCCCOc1cc2c(cc1OC)-c1cc(=O)c(C(=O)O)cn1N1[C@@H]2CCCC1(C)C` (single isomer, unassigned) [Example 52], in data set [1], the 50% effective concentration (EC50) came to 0.91 nM. Besides, in the data set “MT-4 cytotoxicity assay” (setting [2]), the CC50 at 5 days is over 10000 nM.
The matching figures for `COc1cc2c(cc1OCC1CC(F)(F)C1)[C@H]1CCC(C)(C)N1n1cc(C(=O)O)c(=O)cc1-2` [Example 50, (R)-12-((3,3-difluorocyclobutyl)methoxy)-11-methoxy-3,3-dimethyl-8-oxo-2,3,8,13b-tetrahydro-1H-pyrido[2,1-a]pyrrolo[1,2-c]phthalazine-7-carboxylic acid]: 1 nM and over 10000 nM.
The matching figures for `CC1(C)CC[C@@H]2c3cc(C#CC(C)(C)S(C)(=O)=O)c(OC(F)F)cc3-c3cc(=O)c(C(=O)O)cn3N21` [Compound 112, (R)-11-(difluoromethoxy)-3,3-dimethyl-12-(3-methyl-3-(methylsulfonyl)but-1-yn-1-yl)-8-oxo-2,3,8,13b-tetrahydro-1H-pyrido[2,1-a]pyrrolo[1,2-c]phthalazine-7-carboxylic acid]: 2.7 nM and over 10000 nM.
With `COCc1cc2c(cc1OCC13CC(C#N)(C1)C3)[C@H]1CCC(C)(C)N1n1cc(C(=O)O)c(=O)cc1-2` [Example 74, (R)-12-((3-cyanobicyclo[1.1.1]pentan-1-yl)methoxy)-11-(methoxymethyl)-3,3-dimethyl-8-oxo-2,3,8,13b-tetrahydro-1H-pyrido[2,1-a]pyrrolo[1,2-c]phthalazine-7-carboxylic acid], the EC50 in data set [1] was 3.8 nM. The 50% cytotoxic concentration (CC50) at 5 days in “MT-4 cytotoxicity assay” (setting [2]) is over 10000 nM.

The EC50 is the concentration that produces a half-maximal response. Usually CC50 stands for the concentration that lowers cell viability or growth by half.
